In patent publication US6818656B2, “Method and composition for treatment of irritable bowel disease” (University of Florida, priority 2001, dated 2004):

Assays:
[1] = compared with DEHSPM; cited from earlier work
[2] = cited from earlier work
diarrhea = details: animal models and clinic; cited from earlier work
[3] = system: castor oil-induced diarrhea; details: cited from earlier work; for activity in castor oil-induced diarrhea model (in words): rodent
[4] = system: stress-induced fecal output; experiment: Psychological stress-induced (water avoidance) IBS model, SC administration; assay type: in vivo; details: 57.8 μmol/kg SC; experiment stopped after 2 h, results after 2 h
[5] = system: stress-induced fecal output; experiment: as above; assay type: in vivo; details: for mortality of rats after drug administration: ~24 h post-dosing
Description: (§1) For drug preparation and administration, the compounds were put into solution with sterile normal saline and sonicated briefly, if necessary. The drugs were made up at concentrations such that the rats received the drugs PO or SC at the rate of 1 cc per kilogram. Mice received the CHX(3,4,3)-trans IP at 1 cc per 100 grams. The solutions were made fresh the day of the study. Control animals received an equivalent amount of saline PO or SC.
Animal care and experimental procedures were approved by the Institutional Animal Care and Use Committee. Male Sprague-Dawley rats (250-350 g, Harlan Sprague-Dawley, Indianapolis, Ind.) were housed in polycarbonate cages in a temperature- and humidity-controlled room with a 12-hour light/dark cycle. The experiments were performed at the same time of the day to decrease diurnal variability. A typical experiment involved 20 rats: 5 saline-treated controls and 5 pretreated with polyamine analogues at each of three doses as either a SC injection or a PO gavage. The rats in the SC studies and in one set of experiments involving PO administration were allowed ad libitum access to a standard rodent diet and tap water until the morning of the experiment. Stress was initiated 30 minutes post drug as described below. In another set of experiments involving PO administration, the animals were fasted overnight but were allowed free access to water. […] In a final experiment, non-stressed control rats were injected with saline SC and housed in individual polycarbonate cages. The fecal output (number of pellets) of the stressed and unstressed animals was recorded at 30-min intervals for a 6-h period, during which they received no food or water.
(§2) To initiate the stress, water was added to each cage to a depth of at least 4.5 cm, i.e., within 0.5 cm of the top of the Pyrex dish. To avoid contact with water, the rats stand on the glass dish for the 6 h of the study. Stool output was expressed as the total number of fecal pellets excreted over the 6-h collection period. Percent reduction was calculated by dividing the mean value from the treated animals (T) by the mean value from the control animals (C), subtracting the resulting quotient from 1.0, and multiplying by 100 [i.e., (1.0−T/C)×100].
(§3) A one-tailed t-test assuming unequal variance was performed on the stool output data of the treated vs control (0 mg/kg) animals for each compound. A value of P<0.05 was considered significant.
The psychological stress-induced IBS model involves subjecting the rats to an aversive stimulus (water) and observing the increase in fecal output over a period of time. […] Control rats received an equivalent amount of saline SC.

[6] = system: stress-induced fecal output; experiment: Psychological stress-induced (water avoidance) IBS model, PO administration by gavage; assay type: in vivo, rat; details: 6-hr collection
Description: as §1
Animal care and experimental procedures were approved by the Institutional Animal Care and Use Committee. Male Sprague-Dawley rats (250-350 g, Harlan Sprague-Dawley, Indianapolis, Ind.) were housed in polycarbonate cages in a temperature- and humidity-controlled room with a 12-hour light/dark cycle. The experiments were performed at the same time of the day to decrease diurnal variability. A typical experiment involved 20 rats: 5 saline-treated controls and 5 pretreated with polyamine analogues at each of three doses as either a SC injection or a PO gavage. The rats in the SC studies and in one set of experiments involving PO administration were allowed ad libitum access to a standard rodent diet and tap water until the morning of the experiment. Stress was initiated 30 minutes post drug as described below. In another set of experiments involving PO administration, the animals were fasted overnight but were allowed free access to water. The animals were then stressed from ½ h to 2 h post-drug (data not shown). In a final experiment, non-stressed control rats were injected with saline SC and housed in individual polycarbonate cages. The fecal output (number of pellets) of the stressed and unstressed animals was recorded at 30-min intervals for a 6-h period, during which they received no food or water.
as §2, with “Once the drug had been administered, the animals were housed individually in polycarbonate cages containing a clear 70×50 mm Pyrex crystallization dish (Fisher, Pittsburgh, Pa.) inverted in the center and held in place with vacuum grease. To initiate” for “To initiate”
as §3
Because an orally active compound would be desirable for the treatment of IBS, selected analogues utilizing oral administration in the same model were assessed. In the initial studies animals were utilized that had been fasted overnight. Rodents were then given the drug of interest PO by gavage and stressed ½ h, 1 h, or 2 h post-drug. Unfortunately, because of the low baseline stool output in fasted control rats, the reductions in fecal output observed upon drug administration cannot be reported with any confidence (data not shown). Thereafter, only non-fasted animals were employed and were given the agents by gavage at doses of 11.6, 23.2, 57.8, or 115.6:mol/kg 30 minutes before initiating the stress. […] At doses of 11.6 and 23.2:mol/kg, CHX(3,4,3)-trans reduced stooling by about 80% (P=0.001 and <0.001, respectively). DEHSPM was effective at a dose of […]:mol/kg (40% diminution of fecal output; P<0.01), and DE(5,4,5) was active at doses of 23.2 and 57.8:mol/kg (55 and 73% reductions in fecal output, respectively; P<0.001 for both doses).

[7] = system: stress-induced fecal output; experiment: as above; assay type: in vivo, rat; details: 2.3 μmol/kg PO, non-fasted, stress 30 min post drug, 6-hr collection
[8] = Acute toxicity assessment, single intraperitoneal injection; assay type: in vivo
Protocol: For the acute toxicity assessment the CHX(3,4,3)-trans was administered to female CD-1 mice (Charles River, Wilmington, Mass.) as a single intraperitoneal (IP) injection. The animals were carefully observed post-dosing and were scored 2 h after administration of the drug.
as §1

[9] = dogs, 4.3 mg/kg/day for 14 days or 2.15 mg/kg/d for 28 days
[10] = 2.3 μmol/kg SC, stress 30 min post drug, 6-h collection
[11] = 57.8 μmol/kg SC, listed as DBSPM
[12] = Rattus norvegicus, sc, 2 h, read-out: % Reduction
[13] = Rattus norvegicus, 2.3 μmol/kg SC, vs stressed controls, 6 h, read-out: % Reduction

For `CCNCC[C@@H](O)CNCCCCNC[C@H](O)CCNCC` [(HO)2DEHSPM, (3R, 12R)-N^1,N^14-diethyl-3,12-dihydroxyhomospermine], the “residence time in most mouse tissues” value [1] is given as “shorter than that of DEHSPM”, the “onset of exocrine pancreatic insufficiency post-final dose” value [2, 9] is given as “approximately 40 days” and the pancreatic toxicity [2, 9] is given as “exocrine pancreatic insufficiency developed”. The “induction of cardiac bigeminies” value ([2]; treated dogs) was “minimal”, the “antidiarrheal activity (in words)” value (diarrhea) was “as effective an antidiarrheal as DEHSPM” and the “activity in castor oil-induced diarrhea model (in words)” value [3] was “considerably decreased stool output”.
For `CCCCNCCCNCCCCNCCCNCCCC` [Compound 5], the “neurotoxicity in rats at subtherapeutic doses” value ([3]; doses equivalent to a 5 mg/kg dose of DEHSPM) is given as “Signs of neurotoxicity”, the “Stool Output” value [4] is given as 0 ± 0 number of fecal pellets and the “Stool Output” value [5, 10] is given as 14.0 ± 4.8 number of fecal pellets. The “toxic effects observed in stressed rats” value ([5]; 11.6 μmol/kg SC) was “^eDue to severe CNS toxicity, the experiment was stopped after 2 h; the results after 2 h are reported”, the “Stool Output” value ([5]; 11.6 μmol/kg SC, experiment stopped after 2 h, results after 2 h) was 0 ± 0 number of fecal pellets and the “% Reduction” value ([5]; 11.6 μmol/kg SC, experiment stopped after 2 h, results after 2 h, listed as DBSPM) was “completely eliminated fecal output”. For the same molecule, the “toxic effects observed in stressed rats” value ([5]; 11.6 μmol/kg SC, listed as DBSPM) was “severe neurotoxicity”, the “toxic effects observed in stressed rats” value ([5]; 57.8 μmol/kg SC) was “^eDue to severe CNS toxicity, the experiment was stopped after 2 h; the results after 2 h are reported” and the “mortality of rats after drug administration” value ([5]; 57.8 μmol/kg SC) was “^fAll rats in this group died ˜24 h after drug administration”. For the same molecule, the “mortality of rats after drug administration” value [5, 11] was “died within ˜24 h post-dosing”, the “toxic effects observed in stressed rats” value [5, 11] was “severe neurotoxicity” and the inhibition in vivo at 11.6 µmol/kg [5, 12] was 100%. It also gave an inhibition in vivo at 57.8 µmol/kg [5, 12] of 100% and an inhibition in vivo at 2.3 µmol/kg [5, 13] of 39%.
In the case of `CCNCCCN[C@H]1CC[C@H](NCCCNCC)CC1` [Compound 12, N,N′-bis[3-(ethylamino)propyl]-trans-1,4-cyclohexanediamine], the “Stool Output” value ([6]; 11.6 μmol/kg PO) is reported as 2.2 ± 1.3 number of fecal pellets, the “Stool Output” value ([6]; 23.2 μmol/kg PO) is reported as 2.0 ± 1.9 number of fecal pellets and the “Stool Output” value [7] is reported as 9.0 ± 1.6 number of fecal pellets. The “doses at which signs of motor dysfunction, including seizures, were observed” value ([3]; rats, rodent antidiarrheal model) was no less than 1 mg/kg, the “activity in castor oil-induced diarrhea model (in words)” value [3] was “most effective of the SPM analogues tested” and the acute toxicity ([8]; IP, female CD-1 mice, single dose, scored 2 h) was “about 150 mg/kg”. The “toxic doses (neurological signs)” value ([8]; IP, single dose, mice) was no less than 125 mg/kg, the “toxic dose in mice, allometrically scaled, relative to the 0.0625 mg/kg effective dose in rats” value ([8]; mouse toxic dose vs rat dose of 0.0625 mg/kg) was “at least 1000 times” and the “signs of acute toxicity in mice” value ([8]; toxic doses, mice) was “uncoordinated movements, intention tremors, and severe motor dysfunction, especially of the hind limbs”. For the same molecule, the “Stool Output” value ([5]; 0.0726 μmol/kg SC, 6-h collection) was 5.4 ± 2.1 number of fecal pellets, the “Stool Output” value ([5]; 0.145 μmol/kg SC, 6-h collection) was 2.2 ± 1.3 number of fecal pellets and the “Stool Output” value ([5]; 0.29 μmol/kg SC, 6-h collection) was 0.6 ± 0.9 number of fecal pellets. The “toxic effects observed in stressed rats” value ([5]; 0.58 μmol/kg SC) was “^gToxic effects were evident, including huddling in the corner of the cage”, the “Stool Output” value ([5]; 0.58 μmol/kg SC, 6-h collection) was 0 ± 0 number of fecal pellets and the “toxic effects observed in stressed rats” value ([5]; 1.16 μmol/kg SC) was “^gToxic effects were evident, including huddling in the corner of the cage”. For the same molecule, the “Stool Output” value ([5]; 1.16 μmol/kg SC, 6-h collection) was 0 ± 0 number of fecal pellets, the “toxic effects observed in stressed rats” value ([5]; 2.3 μmol/kg SC) was “^gToxic effects were evident, including huddling in the corner of the cage” and the “Stool Output” value [5, 10] was 0 ± 0 number of fecal pellets. For the same molecule, the “diminution in fecal output” value ([5]; 0.07 :mol/kg SC) was 50%, the inhibition in vivo at 0.0726 µmol/kg ([5]; Rattus norvegicus, 0.0726 μmol/kg SC, vs stressed controls, 6 h, read-out: % Reduction) was 52% and the inhibition in vivo at 0.145 µmol/kg ([5]; Rattus norvegicus, 0.145 μmol/kg SC, vs stressed controls, 6 h, read-out: % Reduction) was 80%. The inhibition in vivo at 0.29 µmol/kg ([5]; Rattus norvegicus, 0.29 μmol/kg SC, vs stressed controls, 6 h, read-out: % Reduction) was 95%, the inhibition in vivo at 0.58 µmol/kg ([5]; Rattus norvegicus, 0.58 μmol/kg SC, vs stressed controls, 6 h, read-out: % Reduction) was 100% and the inhibition in vivo at 1.16 µmol/kg ([5]; Rattus norvegicus, 1.16 μmol/kg SC, vs stressed controls, 6 h, read-out: % Reduction) was 100%. The inhibition in vivo at 2.3 µmol/kg [5, 13] was 100%, the “activity at diminishing stress-induced fecal output (in words)” value ([5]; SC administration to stressed rats) was “most effective against stress-induced stooling, regardless of the mode of administration” and the “dose needed to reduce fecal output of the stressed animals to that of the unstressed controls” value ([5]; SC, rats) was 0.0625 mg/kg. For the same molecule, the “lowest dose that reduced stool output by >50% relative to the stressed controls” value ([5]; SC, rats) was 0.03125 mg/kg and the “1 mg/kg neurotoxic dose relative to lowest dose reducing stool output by >50%” value ([5]; rats, 1 mg/kg vs 0.03125 mg/kg) was “greater than 30 times”.
